Like-named read-outs stand apart in the source and are kept apart here. Marks after values point to notes of the source that are not given here.
Tested on: DispersinB
Type: biochemical, Aggregatibacter actinomycetemcomitans
Conditions: polyol % as in label
Experimental: Samples from each formula was incubated at 3 different temperatures (42° C., 52° C. and 62° C.) for 3 hours. Following a 3 hour incubation, the samples were brought to room temperature for enzymatic activity assay.
Two-tailed paired T-test was performed by to compare each polyol containing treatment with the treatment devoid of polyol. Treatment with probability values (p) less than 5% (0.05) was considered significant.

OC[C@@H](O)[C@@H](O)CO [Erythritol, (2R,3S)-Butane-1,2,3,4-tetrol]
% enzymatic activity of DispersinB (Mean) (4° C., freshly made control without polyol = 100%, listed as 1% Erythritol): 105%
% enzymatic activity of DispersinB (Mean) (4° C., freshly made control without polyol = 100%, listed as 2.5% Erythritol): 97%
% enzymatic activity of DispersinB (Mean) (4° C., freshly made control without polyol = 100%, listed as 5% Erythritol): 101%
% enzymatic activity of DispersinB (Mean) (4° C., freshly made control without polyol = 100%, listed as 10% Erythritol): 97%
% enzymatic activity of DispersinB (Mean) (4° C., freshly made control without polyol = 100%, listed as 15% Erythritol): 96%
% enzymatic activity of DispersinB (Mean) (4° C., freshly made control without polyol = 100%, listed as 20% Erythritol): 104%
% enzymatic activity of DispersinB (Mean) (4° C., freshly made control without polyol = 100%, listed as 25% Erythritol): 109%
% enzymatic activity of DispersinB (Mean) (42° C. for 3 hours, control without polyol = 100%, listed as 1% Erythritol): 109* %
% enzymatic activity of DispersinB (Mean) (42° C. for 3 hours, control without polyol = 100%, listed as 2.5% Erythritol): 107* %
% enzymatic activity of DispersinB (Mean) (42° C. for 3 hours, control without polyol = 100%, listed as 5% Erythritol): 106* %
% enzymatic activity of DispersinB (Mean) (42° C. for 3 hours, control without polyol = 100%, listed as 10% Erythritol): 107* %
% enzymatic activity of DispersinB (Mean) (42° C. for 3 hours, control without polyol = 100%, listed as 15% Erythritol): 119* %
% enzymatic activity of DispersinB (Mean) (42° C. for 3 hours, control without polyol = 100%, listed as 20% Erythritol): 113* %
% enzymatic activity of DispersinB (Mean) (42° C. for 3 hours, control without polyol = 100%, listed as 25% Erythritol): 117* %
% enzymatic activity of DispersinB (Mean) (52° C. for 3 hours, control without polyol = 100%, listed as 1% Erythritol): 6* %
% enzymatic activity of DispersinB (Mean) (52° C. for 3 hours, control without polyol = 100%, listed as 2.5% Erythritol): 20* %
% enzymatic activity of DispersinB (Mean) (52° C. for 3 hours, control without polyol = 100%, listed as 5% Erythritol): 33* %
% enzymatic activity of DispersinB (Mean) (52° C. for 3 hours, control without polyol = 100%, listed as 10% Erythritol): 58* %
% enzymatic activity of DispersinB (Mean) (52° C. for 3 hours, control without polyol = 100%, listed as 15% Erythritol): 78* %
% enzymatic activity of DispersinB (Mean) (52° C. for 3 hours, control without polyol = 100%, listed as 20% Erythritol): 95* %
% enzymatic activity of DispersinB (Mean) (52° C. for 3 hours, control without polyol = 100%, listed as 25% Erythritol): 121* %
% enzymatic activity of DispersinB (Mean) (62° C. for 3 hours, control without polyol = 100%, listed as 1% Erythritol): 0%
% enzymatic activity of DispersinB (Mean) (62° C. for 3 hours, control without polyol = 100%, listed as 2.5% Erythritol): 0%
% enzymatic activity of DispersinB (Mean) (62° C. for 3 hours, control without polyol = 100%, listed as 5% Erythritol): 0%
% enzymatic activity of DispersinB (Mean) (62° C. for 3 hours, control without polyol = 100%, listed as 10% Erythritol): 0%
% enzymatic activity of DispersinB (Mean) (62° C. for 3 hours, control without polyol = 100%, listed as 15% Erythritol): 0%
% enzymatic activity of DispersinB (Mean) (62° C. for 3 hours, control without polyol = 100%, listed as 20% Erythritol): 0%
% enzymatic activity of DispersinB (Mean) (62° C. for 3 hours, control without polyol = 100%, listed as 25% Erythritol): 20* %

OC[C@@H](O)[C@@H](O)[C@H](O)[C@H](O)CO[C@H]1O[C@H](CO)[C@@H](O)[C@H](O)[C@H]1O [Isomalt, (2R,3R,4R,5R)-6-[[(2S,3R,4S,5S,6R)-3,4,5-Trihydroxy-6-(hydroxymethyl)-2-tetrahydropyranyl]oxy]hexane-1,2,3,4,5-pentol]
% enzymatic activity of DispersinB (Mean) (4° C., freshly made control without polyol = 100%, listed as 1% Isomalt): 105%
% enzymatic activity of DispersinB (Mean) (4° C., freshly made control without polyol = 100%, listed as 2.5% Isomalt): 105%
% enzymatic activity of DispersinB (Mean) (4° C., freshly made control without polyol = 100%, listed as 3% Isomalt): 106%
% enzymatic activity of DispersinB (Mean) (4° C., freshly made control without polyol = 100%, listed as 5% Isomalt): 107%
% enzymatic activity of DispersinB (Mean) (4° C., freshly made control without polyol = 100%, listed as 10% Isomalt): 106%
% enzymatic activity of DispersinB (Mean) (4° C., freshly made control without polyol = 100%, listed as 15% Isomalt): 101%
% enzymatic activity of DispersinB (Mean) (4° C., freshly made control without polyol = 100%, listed as 20% Isomalt): 102%
% enzymatic activity of DispersinB (Mean) (42° C. for 3 hours, control without polyol = 100%, listed as 1% Isomalt): 102* %
% enzymatic activity of DispersinB (Mean) (42° C. for 3 hours, control without polyol = 100%, listed as 2.5% Isomalt): 100* %
% enzymatic activity of DispersinB (Mean) (42° C. for 3 hours, control without polyol = 100%, listed as 3% Isomalt): 100* %
% enzymatic activity of DispersinB (Mean) (42° C. for 3 hours, control without polyol = 100%, listed as 5% Isomalt): 99* %
% enzymatic activity of DispersinB (Mean) (42° C. for 3 hours, control without polyol = 100%, listed as 10% Isomalt): 107* %
% enzymatic activity of DispersinB (Mean) (42° C. for 3 hours, control without polyol = 100%, listed as 15% Isomalt): 106* %
% enzymatic activity of DispersinB (Mean) (42° C. for 3 hours, control without polyol = 100%, listed as 20% Isomalt): 107* %
% enzymatic activity of DispersinB (Mean) (52° C. for 3 hours, control without polyol = 100%, listed as 1% Isomalt): 2%
% enzymatic activity of DispersinB (Mean) (52° C. for 3 hours, control without polyol = 100%, listed as 2.5% Isomalt): 3%
% enzymatic activity of DispersinB (Mean) (52° C. for 3 hours, control without polyol = 100%, listed as 3% Isomalt): 4* %
% enzymatic activity of DispersinB (Mean) (52° C. for 3 hours, control without polyol = 100%, listed as 5% Isomalt): 11* %
% enzymatic activity of DispersinB (Mean) (52° C. for 3 hours, control without polyol = 100%, listed as 10% Isomalt): 37* %
% enzymatic activity of DispersinB (Mean) (52° C. for 3 hours, control without polyol = 100%, listed as 15% Isomalt): 82* %
% enzymatic activity of DispersinB (Mean) (52° C. for 3 hours, control without polyol = 100%, listed as 20% Isomalt): 102* %
% enzymatic activity of DispersinB (Mean) (62° C. for 3 hours, control without polyol = 100%, listed as 1% Isomalt): 0%
% enzymatic activity of DispersinB (Mean) (62° C. for 3 hours, control without polyol = 100%, listed as 2.5% Isomalt): 0%
% enzymatic activity of DispersinB (Mean) (62° C. for 3 hours, control without polyol = 100%, listed as 3% Isomalt): 0%
% enzymatic activity of DispersinB (Mean) (62° C. for 3 hours, control without polyol = 100%, listed as 5% Isomalt): 0%
% enzymatic activity of DispersinB (Mean) (62° C. for 3 hours, control without polyol = 100%, listed as 10% Isomalt): 0%
% enzymatic activity of DispersinB (Mean) (62° C. for 3 hours, control without polyol = 100%, listed as 15% Isomalt): 12* %
% enzymatic activity of DispersinB (Mean) (62° C. for 3 hours, control without polyol = 100%, listed as 20% Isomalt): 6* %
